In patent EP0551662A1, “Benzofuranyl- and thiophenylmethylthio-alcanecarboxylic acid derivatives” (BAYER AG, priority 1992, dated 1993):

Tests used:
[1] = system: mitochondrial fraction; assay: Mitochondrial substrate oxidation assay (oxygen electrode); type: biochemical; conditions: NADPH oxidation by mitochondria, final concentration of 300 µM of the test substance, guinea pig hearts
Description: 7. Mitochondrial substrate oxidation assay A mitochondrial fraction was prepared from finely-cut guinea pig hearts. […] The compounds according to the invention were tested to gauge their inhibition of cell respiration by measurement of their effect on the oxidation of these two substances at a concentration of up to 100 µg/ml⁻¹. % inhibition of NADPH oxidation by mitochondria at a final concentration of 300 µM of the test substance Table C

[2] = target: T1, NADPH oxidase (Homo sapiens, UniProt P04839); assay: NADPH oxidase assay in membrane fractions of PMA-stimulated neutrophils; type: biochemical; conditions: final concentration of 33 µM of the test substance
T1 construct: endogenous in cells; host or cells: neutrophils, PMA-stimulated, sonicated; membrane fraction
T1 sequence (P04839 2-570 limits assumed): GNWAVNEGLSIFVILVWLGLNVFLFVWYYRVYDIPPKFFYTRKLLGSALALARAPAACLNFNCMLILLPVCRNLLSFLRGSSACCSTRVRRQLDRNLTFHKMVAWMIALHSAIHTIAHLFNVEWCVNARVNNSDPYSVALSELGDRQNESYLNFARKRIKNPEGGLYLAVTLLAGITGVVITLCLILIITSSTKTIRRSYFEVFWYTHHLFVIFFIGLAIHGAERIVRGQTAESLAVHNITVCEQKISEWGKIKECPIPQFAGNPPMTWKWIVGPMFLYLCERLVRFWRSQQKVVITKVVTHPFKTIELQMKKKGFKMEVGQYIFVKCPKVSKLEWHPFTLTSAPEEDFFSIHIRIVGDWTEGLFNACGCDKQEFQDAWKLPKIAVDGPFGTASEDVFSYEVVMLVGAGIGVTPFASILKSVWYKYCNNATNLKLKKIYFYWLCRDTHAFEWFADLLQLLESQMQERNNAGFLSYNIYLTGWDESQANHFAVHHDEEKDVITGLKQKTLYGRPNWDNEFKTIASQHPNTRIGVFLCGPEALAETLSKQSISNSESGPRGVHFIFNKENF
T1 sequence (P13498 2-195 partner limits assumed): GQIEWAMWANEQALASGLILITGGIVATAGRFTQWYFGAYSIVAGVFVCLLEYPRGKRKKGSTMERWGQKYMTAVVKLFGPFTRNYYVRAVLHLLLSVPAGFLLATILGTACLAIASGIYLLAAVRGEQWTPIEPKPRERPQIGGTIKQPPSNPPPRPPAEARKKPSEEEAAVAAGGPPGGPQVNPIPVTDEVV
Description: 3. Inhibition of myeloperoxidase The compounds according to the invention were tested for their action on human neutrophil myeloperoxidase activity by the established method of Bos, A.J. et al., Infection and Immunity, 1981, 32 (2), 427-431. 4. Xanthine oxidase assay Equal parts of the substrate (7.5 mM hypoxanthine) were incubated at 25°C with the compounds according to the invention or carrier, and 10⁻⁵ M luminol and the enzyme xanthine oxidase were added immediately before starting the luminescence measurement. The formation of superoxide was then measured for 140 sec in the 1251 luminometer. The activity was in each case measured against xanthine oxidase in the presence or absence of the compounds according to the invention by monitoring the growth of the absorption at 292 nm due to the formation of uric acid. 5. Determination of the specificity When neutrophils are activated by PMA or FMLP, they release the lysosomal enzyme beta-glucuronidase. […] Using a concentration of 10⁶ cells ml⁻¹, the compounds according to the invention were tested in parallel using a cell preparation thereof to gauge their capability to inhibit FMLP-induced superoxide production and FMLP-induced beta-glucuronidase release. 6. NADPH oxidase assay Neutrophils were stimulated with PMA and treated with ultrasound, and a membrane fraction was prepared. […]

[3] = system: polymorphonuclear granulocytes; assay: FMLP-induced chemiluminescence of polymorphonuclear granulocytes (inhibition of FMLP-stimulated production of superoxide radical anions); type: cell-based; conditions: human PMN
Description: 1. Preparation of human PMN Blood was taken from healthy subjects by venous puncture and neutrophils were purified by dextran sedimentation and resuspended in the buffered medium. 2. Inhibition of FMLP-stimulated production of superoxide radical anions. Neutrophils (2.5 × 10⁵ ml⁻¹) were mixed with the compounds according to the invention in dimethyl sulphoxide (DMSO), the final concentration of the compounds according to the invention being 10 µM and the DMSO concentration being 1% v/v. After addition of luminol, final concentration about 10⁻⁵M and 33 µg/ml of cytochalasin B, the cells were stimulated with a final concentration of about 5 × 10⁻⁸ M FMLP. Measurement of the chemiluminescence peaks was carried out using an LKB 1251 luminometer. The inhibition of the superoxide and the reduction of cytochrome C by FMLP-stimulated cells was likewise measured. Neutrophils (2.6 × 10⁵ ml⁻¹) were mixed with the compounds according to the invention as in the chemiluminescence experiment. Cytochrome C with a concentration of […] is also present. The superoxide-dependent cytochrome C reduction was measured using a Molecular Devices Thermomax plate reader. The inhibition of superoxide production was calculated as follows: [formula] […]

Structure (SMILES) | % inhibition (mitochondrial respiration) [1] [%] | inhibition at 33 µM [2] [%] | inhibition at 10 µM ([3]; 10 µM of the test substance) [%] | IC50 ([3]; read-out: IC₅₀) [nM]
COc1ccc(C(=O)c2oc3ccccc3c2CSCCC(=O)O)cc1C(=O)O [Example 31] | 0 ± 7 | 20 |  | 
COc1ccc(C(=O)c2oc3ccccc3c2CSCCC(=O)O)cc1C(=O)NS(=O)(=O)c1ccccc1C [Example 17, 2-[4-Methoxy-3-(2-tolylsulphonamide-carbonyl)-benzoyl]-3-[(2-carboxyethyl)thiomethyl]benzo[b]furan] | 24 ± 2 | 21 ± 7 | 96 ± 2 | 700
